Data reported in patent US9315451B2, “Tetracycline compounds” (priority 2009, dated 2016).
Where two headings read alike, the source gives them in different places.

Key:
[1] = test system: tetracycline-resistant tet(M) S. pneumoniae strain SP160; assay: Neutropenic respiratory infection model for S. pneumoniae (murine lung infection); assay type: in vivo; details: neutropenic BALB/c mice, SP160 intranasal, 30 mg/kg orally at 2 and 12 hours post-infection, lung CFU at 24 hours
Method: Neutropenic Respiratory Infection Models for S. pneumoniae
Compounds were tested in a neutropenic BALB/c murine model of lung infection challenged with tetracycline-resistant tet(M) S. pneumoniae strain SP160. Mice were made neutropenic by pre-treatment with cyclophosphamide and infected with SP160 via intranasal administration. Mice were dosed orally with 30 mg/kg compound at 2 and 12 hours post-infection. At 24 hours following initiation of treatment, mice were euthanized and bacterial reduction in the lung was quantified by plating lung homogenates. Data was recorded as log10 reduction in lung colony forming units versus an untreated control group.

[2] = test system: S. aureus Smith (ATCC 13709); assay: Mouse systemic infection (septicemia) model, S. aureus Smith; assay type: in vivo; details: Staphylococcus aureus, CD-1 female mice; for responders at 3 mg/kg: ATCC13709, iv, IV 3 mg/kg one hour post infection, read-out: SA Smith septicemia survival IV (3 mg/kg); for responders at 3 mg/kg / responders at 30 mg/kg: 48 h, survival at 48 hours; for responders at 30 mg/kg: ATCC13709, po, PO 30 mg/kg one hour post infection, read-out: SA Smith septicemia survival PO (30 mg/kg); for ED50: ATCC13709, dose that prevents 50% of the mice from death, 48 hours
Procedure, shortened: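 Female CD-1 mice (18-22 g) infected IP with an inoculum lethal to all within 24–48 h. Compound given 1 h post-infection IV ([…]) or PO ([…]), typically six mice per dose group; survival followed for 48 h and PD50 (mg/kg) derived from 48 h survival.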

[3] = Pharmacokinetic studies in rats; assay type: in vivo; details: rat, plasma, male Sprague Dawley rats, fasted; for clearance: read-out: Cl, IV Rat PK; for bioavailability: oral 10 mg/kg vs IV 1 mg/kg, read-out: % F (oral bioavailability), Oral Rat PK; for Cmax: read-out: Cmax, IV Rat PK
Method: Pharmacokinetic Studies in Rats Test compounds were evaluated in fasted (no food for 18 hours prior to dosing) male Sprague Dawley rats (3 animals per group) by administration of 1 mg/kg intravenously into the jugular vein and […] by oral gavage. Ten plasma samples were drawn for each dosing route up to 24 hours into heparin-coated vacutainer tubes. The plasma concentrations of the test compounds were quantified by LC/MS/MS using an internal standards. WinNONLIN was used to determine PK parameters ±standard deviation (AUC, Cmax, CL, Vss and % oral bioavailabilty (% F) and are set forth in Table F.

[4] = test system: Uropathogenic E. coli EC200; assay: Murine kidney infection model, uropathogenic E. coli EC200; assay type: in vivo; details: BALB/c mice; for log reduction at 2 mg/kg: PO 2 mg/kg at 12 and 24 hours post infection; for EC200 UTI IV, log10 reduction in CFUs in the kidney versus untreated controls: @ 5 mpk in cells (column head 3 mg/kg)
Method: (§1) Kidney Infection Models for Uropathogenic E. coli EC200 and K. pneumoniae ESBL Isolate KP453
Compounds were tested in a BALB/c murine kidney infection model challenged with tetracycline-resistant E. coli strain uropathogenic […] via intravenous injection. […] For IV administration test compound was dosed at 3 mg/kg. Thirty-six hours following initiation of treatment, mice were euthanized and bacterial reduction in the kidney was quantified by plating kidney homogenates. Results are reported in Table D as log10 reduction in colony forming units (CFUs) in the kidney versus untreated controls (receiving no test compound).

[5] = test system: K. pneumoniae ESBL Isolate KP453; assay: Murine kidney infection model, K. pneumoniae ESBL isolate KP453; assay type: in vivo; details: BALB/c mice; for log reduction at 50 mg/kg: Klebsiella pneumoniae, po, 36 h, PO 50 mg/kg at 9 and 24 hours post infection, read-out: KP453 ESBL UTI PO, log10 reduction in CFUs in the kidney versus untreated controls; for KP453 ESBL UTI IV, log10 reduction in CFUs in the kidney versus untreated controls: IV 20 mg/kg
Method: as §1
Compounds were also tested in BALB/c murine kidney infection model challenged with levofloxacin-resistant, ESBL^+ strain KP453 via intravenous injection with 2% carageenen. At 9 and 24 hours post infection mice were treated orally with 50 mg/kg of test compound. For IV administration, test compounds were dosed at 20 mg/kg. At 36 hours following initiation of treatment, mice were euthanized and bacterial reduction in the kidney was quantified by plating homogenates. Results are reported in Table D as log10 reduction in colony forming units (CFUs) in the kidney versus untreated controls (receiving no test compound).

[6] = test system: tetracycline-resistant tet(M) MRSA strain SA191; assay: Neutropenic respiratory infection model for MRSA (murine lung infection); assay type: in vivo, Staphylococcus aureus; details: neutropenic BALB/c mice, SA191 intranasal, 50 mg/kg orally at 2 and 12 hours, lung CFU at 24 hours
Method: Neutropenic Respiratory Infection Model for MRSA
Compounds were tested in a neutropenic BALB/c murine model of lung infection challenged with a tetracycline-resistant tet(M) MRSA strain SA191 infected via intranasal administration. At 2 and 12 hours mice were dosed orally with 50 mg/kg compound. At 24 hours following initiation of treatment, mice were euthanized and bacterial reduction in the lung was quantified by plating lung homogenates. Data was recorded as log10 reduction in lung colony forming units versus an untreated control group.

[7] = Monkey PK; assay type: in vivo; details: cynomolgus monkey, plasma, cynomolgus monkeys; for bioavailability: PO 10 mg/kg vs IV 1 mg/kg, read-out: % F (oral bioavailability), monkey
Method: Compounds S24-9-23 and S16-10-161 were evaluated in 3 non-naïve cynomolgus monkeys. Each animal received a single IV dose of 1 mg/kg and after a 7-day washout, received a single PO dose of 10 mg/kg. Nine to ten plasma samples were drawn for each dosing route up to 24 hours into heparin-coated vacutainer tubes. Dose formulations were verified with a 5-point calibration curve. The plasma concentration of the compound was quantified by LC/MS/MS using an internal standard.

[8] = PO, read-out: SA Smith septicemia PD50 PO
[9] = IV 1 mg/kg, read-out: AUC, IV Rat PK
[10] = oral gavage 10 mg/kg, read-out: AUC, Oral Rat PK
[11] = Escherichia coli, po, 36 h, read-out: EC200 UTI PO, log10 reduction in CFUs in the kidney versus untreated controls
[12] = single IV dose of 1 mg/kg, read-out: AUC, IV, monkey
[13] = single PO dose of 10 mg/kg, read-out: AUC, oral, monkey
[14] = single PO dose of 10 mg/kg, read-out: Cmax, oral, monkey

Row | Compound | Bacterial Reduction in the Lung (Log10 change from 24 hour control) [1] [Log10] | responders at 3 mg/kg [2] [%] | responders at 30 mg/kg [2] [%] | clearance ([3]; IV 1 mg/kg) [mL/min/kg] | bioavailability [3] [%] | AUC [3, 9] [ng·h/mL] | Cmax ([3]; IV 1 mg/kg) [ng/mL] | AUC [3, 10] [ng·h/mL] | log reduction at 50 mg/kg [5] | log reduction at 2 mg/kg [4, 11] | Bacterial Reduction in the Lung (Log10 change from 24 hour control) [6] [Log10] | EC200 UTI IV, log10 reduction in CFUs in the kidney versus untreated controls [4] | KP453 ESBL UTI IV, log10 reduction in CFUs in the kidney versus untreated controls [5] [log10] | further results
1 | CCC(C)(C)N(C)Cc1cc(O)c2c(c1F)C[C@H]1C[C@H]3[C@H](N(C)C)C(O)=C(C(N)=O)C(=O)[C@@]3(O)C(O)=C1C2=O [Compound S2-4-28] | −0.06 | 100 | 100 | 17.6 | 44.7 | 970 | 170 | 4380 |  |  |  |  |  | ED50 ([2]; IV, read-out: SA Smith septicemia PD50 IV): 0.62 mg/kg; ED50 [2, 8]: 3 mg/kg
2 | CN(C)[C@@H]1C(O)=C(C(N)=O)C(=O)[C@@]2(O)C(O)=C3C(=O)c4c(O)cc(CN5CCCCCC5)c(Cl)c4C[C@H]3C[C@@H]12 [Compound S15-13-188] | −0.22 | 100 | 100 |  |  |  |  |  | 1.55 |  |  |  |  | ED50 [2, 8]: 8.3 mg/kg; log reduction at 3 mg/kg ([4]; Escherichia coli, po, 36 h, PO @ 3 mpk, read-out: EC200 UTI PO, log10 reduction in CFUs in the kidney versus untreated controls): 3.48
3 | C[C@H]1CC[C@H](C)N1Cc1cc(O)c2c(c1Cl)C[C@H]1C[C@H]3[C@H](N(C)C)C(O)=C(C(N)=O)C(=O)[C@@]3(O)C(O)=C1C2=O [Compound S15-13-223] | −0.12 | 100 | 100 |  |  |  |  |  | 1.32 | 2.27 |  |  |  | 
4 | C[C@@H](NCc1cc(O)c2c(c1N(C)C)C[C@H]1C[C@H]3[C@H](N(C)C)C(O)=C(C(N)=O)C(=O)[C@@]3(O)C(O)=C1C2=O)C(C)(C)C [Compound S16-10-79] | −4.31 | 100 | 100 |  |  |  |  |  |  |  | −1.27 |  |  | 
5 | CN(C)c1c(CN2CCCCC2)cc(O)c2c1C[C@H]1C[C@H]3[C@H](N(C)C)C(O)=C(C(N)=O)C(=O)[C@@]3(O)C(O)=C1C2=O [Compound S16-10-161] |  | 100 | 100 | 12.8 | 31.6 | 1310 | 689 | 4440 | 1.04 | 1.85 |  | @ 5 mpk −3.99 log10 | −3.09 | bioavailability [7]: 42.7%; clearance ([7]; single IV dose of 1 mg/kg, read-out: Cl, IV, monkey (printed C1, mL/hr) (converted)): 184 mL/h; Vd ([7]; single IV dose of 1 mg/kg, read-out: Vdss, IV, monkey (unit inferred)): 4.05 L/kg; AUC [7, 12]: 5680 ng·h/mL; Cmax ([7]; single IV dose of 1 mg/kg, read-out: Cmax, IV, monkey (unit inferred)): 861 ng/mL; AUC [7, 13]: 26000 ng·h/mL; Cmax [7, 14]: 982 ng/mL
6 | COc1c(CN2CCCCC2)cc(O)c2c1C[C@H]1C[C@H]3[C@H](N(C)C)C(O)=C(C(N)=O)C(=O)[C@@]3(O)C(O)=C1C2=O [Compound S24-9-23] |  | 100 | 100 | 9.26 | 12.2 | 1830 | 795 | 2230 | 2.93 | 2.99 |  | @ 5 mpk −4.34 log10 | −2.95 | bioavailability [7]: 36.8%; clearance ([7]; single IV dose of 1 mg/kg, read-out: Cl, IV, monkey (converted)): 2.4 mL/min/kg; Vd ([7]; single IV dose of 1 mg/kg, read-out: Vdss, IV, monkey): 3.4 L/kg; AUC [7, 12]: 7070 ng·h/mL; Cmax ([7]; single IV dose of 1 mg/kg, read-out: Cmax, IV, monkey): 1370 ng/mL; AUC [7, 13]: 22800 ng·h/mL; Cmax [7, 14]: 1350 ng/mL
7 | CN(C)[C@@H]1C(O)=C(C(N)=O)C(=O)[C@@]2(O)C(O)=C3C(=O)c4c(O)c(N)c(CN5CCCCCC5)c(Cl)c4C[C@H]3C[C@@H]12 [Compound S29-2-4] |  | 100 | 83 |  |  |  |  |  |  |  | −1.29 |  |  | 
8 | COc1c(CN(C)C(C)(C)C2CC2)cc(O)c2c1C[C@H]1C[C@H]3[C@H](N(C)C)C(O)=C(C(N)=O)C(=O)[C@@]3(O)C(O)=C1C2=O [S24-9-21] | −0.89 | 100 | 100 |  |  |  |  |  | 2.16 | 2.3 | −1.98 | @ 5 mpk −4.09 log10 | −2.87 | 
